Patent US9586993B2, “CD44v6-derived peptides for treating pancreatic cancer” (AMCURE GMBH, priority 2012, dated 2017)

Key:
[1] = tested on: c-Met and Erk phosphorylation; experiment: HGF-induced c-Met and Erk phosphorylation in HT29 cells (western blot); format: cell-based, human
Description: (§1) FIG. 12: A: Activation of Met and signal transduction induced by HGF depends on CD44v6 in L3.6p1 cells. L3.6p1 cells were treated with the human v6 peptide (human v6 14mer) or the rat v6 peptide as control prior to induction with 10 ng/ml HGF. Activation of Met and ERK was determined in western blot. The numbers refer to the fold induction. The experiment was repeated at least 5 times. B: Activation of c-Met and signal transduction induced by HGF depends on CD44v6 HeLa cells. Starved HeLa cells respectively HT29 cells were incubated with the v6 peptide (human v6 14mer) or a control peptide for 10 minutes at 37° C. and then induced with 25 ng/ml of HGF for the indicated time points. Cells were then either lysed and the lysates were subjected to Western Blot analysis for phospho-Met and Met. C: Activation of c-Met and signal transduction induced by HGF depends on CD44v6 in HT29 cells. HGF-induced c-Met and Erk phosphorylation in HT29 was determined as described above using phospho-specific antibodies. […]
(§2) The contribution of CD44v6 to Met signaling in the human epithelial pancreatic cancer cells L3.6p1 (derived from Colo 357), the cervix carcinoma cells HeLa and the colon cancer cells HT29 were analysed using the CD44v6 peptide (v6 14mer; v6 5mer tested as well, data not shown).

Met = experiment: HGF-induced Met activation in HeLa cells (western blot); format: cell-based, human; conditions: HGF 25 ng/ml, peptide 10 minutes before induction
Description: as §1, §2

VEGF = experiment: Human VEGF in cell culture supernatant of L3.6p1 cells (Quantikine immunoassay); format: cell-based; conditions: 200 ng/ml peptide in the culture medium, 5 days
Description: Determination of human HGF and VEGF levels in cell culture medium of L3.6p1 cells were performed using the Quantikine Human HGF Immunoassay and Quantikine Human VEGF Immunoassay from […]. For this purpose 3×10^6 cells were cultured for 5 days in a 15 cm plate in the presence of the respective peptides as indicated. The supernatant (20 ml) was centrifuged (1200 rpm) and the assay was performed according to manufacturer's instructions.

KEQWFGNRWHEGYR [human 14mer, human CD44v6 14mer peptide]
inhibition of HGF-induced activation of Met and Erk [1]: able to prevent activation of Met and of its downstream target Erk | inhibition of HGF-induced activation of Met and Erk (Met): able to prevent activation of Met and of its downstream target Erk | hVEGF secretion by L3.6p1 cells (VEGF): can be blocked
